# Measured values taken from patent publication US20240366571A1, “MODULATORS OF SK4 POTASSIUM CHANNEL AND USES THEREOF” (Ramot at Tel-Aviv University Ltd., priority 2022, published 2024).
# How the values were obtained:
# isolated rat hearts = test: Atrial fibrillation induction by burst pacing with carbachol in isolated rat hearts
# Protocol: Atrial Fibrillation induction in Sprague-Dawley rats: For evaluation of Tram-34 and BA6b9 on atrial fibrillation (AF) induction, a custom-made quadripolar electrode was inserted for simultaneous recording and pacing on the HRA. To increase susceptibility for reentry and atrial tachyarrhythmia, the cholinergic agonist carbachol was used. First, baseline AERP was measured under normal physiological conditions, and the measurement was repeated upon exposure to 0.3 μM carbachol, 0.3 μM carbachol+10 μM Tram-34 or 0.3 μM carbachol+10 μM BA6b9. Then, for AF induction, burst pacing was applied to the HRA under increasing pacing thresholds (2×, 3×, 4×, 5×, and 6× threshold). This protocol included two consecutive 5 second bursts at a cycle length of 20 milliseconds for each threshold. This protocol was tested under […] conditions: normal physiological conditions, 0.3 μM carbachol, 0.3 μM carbachol+10 μM Tram-34, or 0.3 μM carbachol+10 μM BA6b9. To determine AF susceptibility under each condition, an AFIS (AF induction score) ranking system was created, relying on the level of threshold intensity when AF induction was successful. Lower AF induction threshold means higher AFIS. The ranking was as follows: induction at 2×-diastolic threshold received the highest score of 5, at 3× the received score was 4, at 4× the received score was 3, at 5× the received score was 2, at 6× the received score was 1, and if no induction occurred it scored zero. For AF sustainability quantification, sustained AF was determined as lasting ≥5 minutes. Non-sustained AF received a score of zero and sustained AF received a score of 1.
# WT SK4 channels = molecular target: T1, WT SK4 channels (Homo sapiens, UniProt O15554); test: Inside-out macro-patch recording of WT SK4 channels in transfected CHO cells; type: cell-based
# T1 construct: expressed in transfected cells; host or cells: CHO cells
# Protocol: Inside-out macro-patch recording: To measure the Ca^2+ concentration dependence for SK4 channel activation, CHO cells were co-transfected with plasmids encoding WT SK4 (1 μg) and WT CaM (1 μg) using the Lipofectamine reagent at a ratio of 1:2. The cells were transfected 48 hours prior to recordings. The patch pipettes were pulled and fire-polished with a MF-900 micro-forge (Narashige) to reach an internal diameter of […]. The resistance of the patch electrodes ranged from 2-3 MΩ. The pipette solution contained 135 mM KCl, 1 mM MgSO4, 0.91 mM CaCl2, and 10 mM HEPES at pH 7.3. The bath solution contained 135 mM KCl, 5 mM EGTA, and 10 mM HEPES at pH 7.3. EGTA was used to titer the different Ca^2+ concentration solutions, calculated using the software by C. Patton of Stanford University (http://maxchelator(dot)stanford(dot)edu/). Currents were recorded by 10 repetitive 1 second duration voltage ramps from −100 mV to +100 mV from a holding potential of 0 mV. The current amplitudes in response to increasing Ca^2+ concentrations were normalized to those obtained at a saturating Ca^2+ concentration (3 μM). Furthermore, to determine the Ca^2+ concentration dependence for activation in the presence of a tested compound, such as the exemplary compound BA6b9 (10 μM), the current amplitudes were normalized to those obtained at large maximal Ca^2+ concentration of 10 μM. For PIP2-dependent activation, PIP2 affinity to the SK4 channel was also examined in the inside-out configuration. The dose-response curve for PIP2 was measured with increasing concentrations of diC8-PIP2 in the presence of 1 μM Ca^2+. The diC8-PIP2 effect on the channel current was measured after complete depletion of the native PIP2 using sonicated poly-L-lysine (PLL) 50 μg/ml and a subsequent 2-minute washout. […] Apparent EC50 values for Ca^2+ or diC8-PIP2 were determined by fitting the data points to a standard dose-response curve Y=100/(1+10^(log EC(50)−X)*HillSlope).
# The calcium dependence of the human SK4 K^+ channel in transfected CHO cells was characterized using inside-out macro-patches. The expressed currents were recorded in response to voltage ramps (−100 millivolt (mV) to +100 mV for 1 seconds) and by increasing the free-Ca^2+ concentrations applied to the internal face of the membrane. […]
# To examine whether PIP2 is involved in the modulation of the SK4 channel, channel trafficking to the plasma membrane was increased by co-transfecting CHO cells with plasmid DNAs encoding for the channel and for wild type (WT) CaM. The resulting currents were recorded from inside-out macro-patches, where the intracellular solution contained a saturating concentration of 1 μM free-Ca^2+, as shown in FIG. 1B (see, black plot).
compound,measurement,setting,value
"CCCCCCCn1c(=O)oc2ccccc21 [BA6b9, 3-heptylbenzo[d]oxazol-2(3H)-one]",reduction of AFIS,isolated rat hearts; 10 μM + 0.3 μM carbachol vs carbachol alone,48%
same,AFIS (AF induction score),"isolated rat hearts; 10 μM + 0.3 μM carbachol, 3.1 with carbachol alone",1.6
same,sustained AF induction,"isolated rat hearts; 10 μM + 0.3 μM carbachol, 100% with carbachol alone",70%
same,heart preparations in which AF sustainability was prevented,"isolated rat hearts; 10 μM, burst pacing",30%
same,lowering of the sensitivity of SK4 channels to Ca2+,WT SK4 channels; 10 μM compound,about 7 fold
same,inhibition at 10 µM,"WT SK4 channels; CHO, 10 μM, 1 μM free-Ca2+, read-out: inhibition of SK4 currents in inside-out macro-patches",66%
